Tests used:
weeds [1] = assay: Pre-emergence test (Example A), activity against weeds; assay type: in vivo; conditions: soil sprayed 24 hours after sowing, rated after three weeks
Description: Pre-Emergence Test • Solvent: 5 parts by weight of acetone • Emulsifier: 1 part by weight of alkylaryl polyglycol ether
(§1) To produce a suitable preparation of active compound, 1 part by weight of active compound is mixed with the stated amount of solvent, the stated amount of emulsifier is added and the concentrate is diluted with water to the desired concentration.
Seeds of the test plants are sown in normal soil. After 24 hours, the soil is sprayed with the preparation of active compound such that the particular amount of active compound desired is supplied per unit area. The concentration of active compound in the spray liquor is chosen such that the particular amount of active compound desired is applied in 1000 litres of water per hectare.
After three weeks, the degree of damage to the plants is rated in % damage in comparison to the development of the untreated control. The figures denote: • 0%=no effect (like untreated control) • 100%=total destruction

weeds [2] = assay: Post-emergence test (Example B), activity against weeds; assay type: in vivo; conditions: test plants of 5-15 cm sprayed, rated after three weeks
Description: Post-Emergence Test • Solvent: 5 parts by weight of acetone • Emulsifier: 1 part by weight of alkylaryl polyglycol ether
as §1
Test plants of a height of 5-15 cm are sprayed with the preparation of active compound such that the particular amounts of active compound desired are applied per unit area. The concentration of the spray liquor is chosen such that the particular amounts of active compound desired are applied in 1 000 1 l of water/ha.
After three weeks, the degree of damage to the plants is rated in % damage in comparison to development of the untreated control.
The figures denote: • 0%=no effect (like untreated control) • 100%=total destruction

[3] = logP determination by HPLC on reversed-phase column (C 18), EEC Directive 79/831 Annex V.A8; assay type: physicochemical; conditions: reversed-phase HPLC column (C 18); printed in text without mark a) or b)
Description: The logP values given in the table were determined in accordance with EEC Directive 79/831 Annex V.A8 by HPLC (High Performance Liquid Chromatography) using a reversed-phase column (C 18). Temperature: 43° C. (a) Mobile phases for the determination in the acidic range: 0.1% aqueous phosphoric acid, acetonitrile; linear gradient from 10% acetonitrile to 90% acetonitrile—corresponding measurement results in Table 1 are marked ^a). (b) Mobile phases for the determination in the neutral range: 0.01 molar aqueous phosphate buffer solution, acetonitrile; linear gradient from 10% acetonitrile to 90% acetonitrile—corresponding measurement results in Table 1 are marked ^b). Calibration was carried out using unbranched alkan-2-ones (having 3 to 16 carbon atoms) with known logP values (determination of the logP values by the retention times using linear interpolation between two successive alkanones).

| chromatographic logP [3] | SMILES | activity against weeds (weeds [1]) | activity against weeds (weeds [2]) |
| --- | --- | --- | --- |
| 2.14 | CN1CCN(Cc2nc(C(F)(F)F)ccc2C(=O)C2C(=O)CCCC2=O)C1=O [Example 1, 2-[2-(3-methyl-2-oxoimidazolidin-1-ylmethyl)-6-trifluoromethylpyridine-3-carbonyl]cyclohexane-1,3-dione] | strong activity | strong activity |
| 1.62 | CN1CCN(Cc2nc(C(F)(F)F)ccc2C(=O)O)C1=O [Example II-1, 6-trifluoromethyl-2-(3-methyl-2-oxoimidazolidin-1-ylmethyl)nicotinic acid] | – | – |
